Experimental data taken from the NIST ThermoML archive (doi:10.1021/je060026r).

Experiment: excess molar enthalpy (molar enthalpy of mixing); xn = mol fraction of the nth substance listed
Conditions: 313.15 K, 101 kPa, Liquid, Flow calorimetry

CCCCOCCO [2-butoxyethan-1-ol] + C1CCCCC1
Conditions | excess molar enthalpy [kcal/mol]
x2 = 0.0414 | 0.0997
x2 = 0.0836 | 0.149
x2 = 0.1265 | 0.183
x2 = 0.1702 | 0.207
x2 = 0.2148 | 0.222
x2 = 0.2602 | 0.233
x2 = 0.3065 | 0.24
x2 = 0.3536 | 0.243
x2 = 0.4017 | 0.242
x2 = 0.4507 | 0.238
x2 = 0.5007 | 0.229
x2 = 0.5518 | 0.219
x2 = 0.6038 | 0.204
x2 = 0.6569 | 0.186
x2 = 0.7111 | 0.165
x2 = 0.7665 | 0.139
x2 = 0.823 | 0.11
x2 = 0.8807 | 0.077
x2 = 0.9397 | 0.0402

COCC(C)O (stereo unspecified) [1-methoxy-2-propanol] + c1ccccc1
Conditions | excess molar enthalpy [kcal/mol]
x1 = 0.0455 | 0.0767
x1 = 0.0914 | 0.124
x1 = 0.1377 | 0.155
x1 = 0.1845 | 0.176
x1 = 0.2317 | 0.188
x1 = 0.2794 | 0.194
x1 = 0.3276 | 0.195
x1 = 0.3763 | 0.193
x1 = 0.4254 | 0.186
x1 = 0.475 | 0.179
x1 = 0.5251 | 0.167
x1 = 0.5758 | 0.153
x1 = 0.6269 | 0.139
x1 = 0.6786 | 0.122
x1 = 0.7308 | 0.103
x1 = 0.7835 | 0.084
x1 = 0.8368 | 0.0643
x1 = 0.8906 | 0.0434
x1 = 0.945 | 0.0216

CCCCOCCO [2-butoxyethan-1-ol] + c1ccccc1
Conditions | excess molar enthalpy [kcal/mol]
x2 = 0.0343 | 0.0612
x2 = 0.0698 | 0.1
x2 = 0.1064 | 0.126
x2 = 0.1444 | 0.145
x2 = 0.1836 | 0.156
x2 = 0.2243 | 0.162
x2 = 0.2665 | 0.165
x2 = 0.3103 | 0.163
x2 = 0.3557 | 0.159
x2 = 0.4029 | 0.153
x2 = 0.452 | 0.144
x2 = 0.503 | 0.133
x2 = 0.5562 | 0.119
x2 = 0.6116 | 0.105
x2 = 0.6694 | 0.0891
x2 = 0.7297 | 0.0726
x2 = 0.7927 | 0.0544
x2 = 0.8586 | 0.0359
x2 = 0.9277 | 0.0175

COCC(C)O (stereo unspecified) [1-methoxy-2-propanol] + C1CCCCC1
Conditions | excess molar enthalpy [kcal/mol]
x1 = 0.0547 | 0.14
x1 = 0.109 | 0.213
x1 = 0.1626 | 0.261
x1 = 0.2158 | 0.295
x1 = 0.2684 | 0.319
x1 = 0.3205 | 0.333
x1 = 0.3721 | 0.341
x1 = 0.4232 | 0.344
x1 = 0.4738 | 0.341
x1 = 0.5239 | 0.335
x1 = 0.5736 | 0.321
x1 = 0.6227 | 0.305
x1 = 0.6715 | 0.283
x1 = 0.7197 | 0.258
x1 = 0.7675 | 0.227
x1 = 0.8149 | 0.191
x1 = 0.8618 | 0.15
x1 = 0.9083 | 0.105
x1 = 0.9544 | 0.0542
